Experimental findings from patent US20230203126A1, “A COMPOSITION COMPRISING S-ARRESTIN PEPTIDES” (WORG PHARMACEUTICALS (HANGZHOU) CO., LTD., priority 2019, published 2023) are described below.

Test [1] deals with MHC II molecules on dendritic cells (CD11c+ cells). In words: In vivo MHC class II loading assay (DR3tg mice). Particulars: 100 µg peptide s.c., spleen 2 h post injection, 72 h co-culture, vs PBS-injected control. Set-up: species or system HLA-DR3-transgenic mice. As to the method:
FIG. 2: Peptide 17JK is correctly loaded on MHC class II in vivo. Response of peptide-specific CD4+ T cells towards peptide loaded in vivo on dendritic cells is shown. HLA-DR3-transgenic mice were injected subcutaneously with 100 µg of 17JK peptide. 2 h post injection, spleens were dissected and CD11c+ cells (dendritic cells) were isolated. These CD11c+ cells were co-cultured with peptide-specific CD4+ cells for 72 h at 37° C. IFNy was measured in the supernatant of these cultures to evaluate the response to peptide by the CD4+ T cells. (*** p<0.001 Mann-Whitney U-test)
FIG. 3: Peptide 15N3K is correctly loaded on MHC class II in vivo. […] IFNy was measured in the supernatant of these cultures to evaluate the response to peptide by the CD4+ T cells. […]
When 100 µg of peptide 9K1K was injected in DR2tg mice or when peptide 17JK or 15N3K was injected in DR3tg mice, these peptides could be detected on dendritic cells (CD11c+ cells) in the spleens of these mice 2 h post injection. Activation (IFNY production) of peptide-specific CD4+ T cells by the isolated CD11 c+ cells was used as a read-out. […]
DR3tg or DR2tg mice were injected with 100 µg of peptide in 100 µl PBS subcutaneously (s.c.) in the flank. […] After 72 hours, supernatant of these co-cultures was collected and CD4+ T cell activation was analysed by IFNy ELISA (R&D Systems, Abingdon, UK). […]

Test [2] concerns the target HLA-DRA1*0101, DRB1*1101 (DR11) (Homo sapiens, UniProt P01903+P01911, A100R/A169T/A87E/I96F/K41T/L162R/M171V/P40S/Q125H/Q178H/Q39Y/Q99D/R42S/S66Y/T262R/V115G/W38E). In words: DR11. As to the method:
(§1) Table printed on a drawing sheet, Figure 9
(§2) The patent's description of the figure: FIG. 9: Diverse patterns of in vitro peptide-MHC II binding for peptides 9K1, 17JK and 15N3K. Binding of peptides 9K1, 17JK and 15N3K to recombinant HLA-DRA1*0101, DRB1*0101 (DR1), DRB1*1501 (DR2), DRB1*0301 (DR3), DRB1*0401 (DR4), DRB1*1101 (DR11), DRB1*0405 (DR4*05) and DRB1*0901 (DR9) was assessed in vitro. IC50 values (µM) are presented and colour-coded per HLA-DR molecule. Low values (green) indicate strong binding, high values (red) indicate low(er) binding.
(§3) FIG. 9 depicts IC50 (µM) values of peptides 9K1K, 17JK and 15N3K binding to the indicated HLA-DR molecules and competing with a known competitor peptide. Values should be compared only within each HLA-DR molecule. Low IC50 values (green) indicate the strongest binder per HLA-DR molecule. Highest values per HLA-DR molecule (red) are indicative of the lowest binder for that HLA-DR molecule. Intermediate values are indicated in orange. […]
(§4) First copying reader's note: The sheet prints no unit; per the patent description the values are IC50 (µM) for peptide binding to the named HLA-DR molecules, with cell shading coding relative binding strength per HLA-DR molecule.
Where the first naming reader finds the target: description_of_the_figure: recombinant HLA-DRA1*0101, DRB1*0101 (DR1), DRB1*1501 (DR2), DRB1*0301 (DR3), DRB1*0401 (DR4), DRB1*1101 (DR11)

The target in test [3] is HLA-DRA1*0101, DRB1*0401 (DR4) (Homo sapiens, UniProt P01903+P01911, A100K/A169T/F76Y/I96L/K127E/L162R/M171V/N62H/P40V/Q125Y/R42H/S133A/S149N/S66Y/V115G/V209L/W38E). Kind of test: DR4. As to the method: as §1, §2, §3, §4
Where the first naming reader finds the target: description_of_the_figure: recombinant HLA-DRA1*0101, DRB1*0101 (DR1), DRB1*1501 (DR2), DRB1*0301 (DR3), DRB1*0401 (DR4)

Test [4] deals with HLA-DRA1*0101, DRB1*0901 (DR9) (Homo sapiens, UniProt P01903+P01911, A100R/A103E/D57H/D86V/F55Y/F60I/F76Y/I96F/K127E/L162R/M171V/P40D/Q125H/Q99R/R33Q/R42F/S133A/S66N/T210M/V115G/W38K/Y107V/Y59G/Y89S). Kind of test: DR9. As to the method: as §1, §2
FIG. 9 depicts IC50 (µM) values of peptides 9K1K, 17JK and 15N3K binding to the indicated HLA-DR molecules and competing with a known competitor peptide. Values should be compared only within each HLA-DR molecule. Low IC50 values (green) indicate the strongest binder per HLA-DR molecule. Highest values per HLA-DR molecule (red) are indicative of the lowest binder for that HLA-DR molecule. Intermediate values are indicated in orange. […] So, combining the peptides into a cocktail treatment, makes the treatment less restricted to a certain HLA-DR type.
as §4

No end group written: not given here.

A word on the IC50: it is the concentration at which inhibition is half-maximal. Read a low IC50 as greater potency in that assay.

Chain of HLA-DRA1*0101, DRB1*1101 (DR11) (P01903 26-254 limits assumed, other chains not shown): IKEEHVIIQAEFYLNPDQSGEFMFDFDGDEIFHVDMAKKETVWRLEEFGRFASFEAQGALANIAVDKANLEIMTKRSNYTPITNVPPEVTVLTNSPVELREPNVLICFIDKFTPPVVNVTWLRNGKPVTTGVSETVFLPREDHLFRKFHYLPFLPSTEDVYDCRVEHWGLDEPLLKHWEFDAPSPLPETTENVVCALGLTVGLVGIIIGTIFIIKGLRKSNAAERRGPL

KKKLTFRRDLYFSRVQVYKKK-NH2 [17JK]: the “CD4+ T cell activation (IFNy) by CD11c+ cells isolated from spleen of injected mice” value in test [1] is “significant CD4+ T cell activation”. The IC50 in test [2] was found to be 880 nM.

For KKKVIFKKISRDKSVTIYLGKKK-NH2 [15N3K], the “CD4+ T cell activation (IFNy) by CD11c+ cells isolated from spleen of injected mice” value in test [1] is “significant CD4+ T cell activation”. Moreover, the results for the IC50 in test [3] and in test [4] were 840 nM and 18400 nM, respectively.
